# From patent US12447156B2, “Treating progressive familial intrahepatic cholestasis (PFIC) with IBAT inhibitors” (ALBIREO AB, priority 2020, dated 2025)
# “Also recorded” adds a separate entry of the source.
# Columns and labels:
# [1] = test system: children with PFIC1 or PFIC2; assay: PEDFIC 1: safety (treatment-emergent adverse events)
# Source text: The primary safety analysis for PEDFIC 1 was based on the incidence of treatment-emergent adverse events (TEAEs). TEAEs were categorized by causality, severity, and seriousness for odevixibat and placebo. Other safety assessments included physical examinations, vital signs, laboratory tests, and abdominal ultrasounds (liver and spleen).
# Secondary endpoints, exploratory endpoints, subgroup analyses, and safety data were summarized descriptively. Adverse events (AEs) were coded using Medical Dictionary for Regulatory Activities version 23.0.
# [2] = test system: children with PFIC; assay: Pooled PEDFIC 1/2 subgroup analysis by concomitant UDCA and/or rifampicin; assay type: in vivo, human; settings: for patients meeting criteria for serum bile acid response: after 48 weeks; for mean proportion of positive pruritus assessments (PPAs): over 48 weeks
# Experimental: Methods: In the double-blind PEDFIC 1 study, children with PFIC1 or PFIC2 were randomized to placebo or odevixibat 40 or 120 μg/kg/day for 24 weeks. In PEDFIC 2, an ongoing, open label extension study, patients from PEDFIC 1 or new patients with any PFIC subtype received odevixibat 120 μg/kg/day. Concomitant UDCA and/or rifampicin were allowed if the patient was on a stable dose. This pooled analysis includes up to 48 weeks of odevixibat treatment from PEDFIC 1 and through the PEDFIC 2 interim data cut (37 weeks; range: 1-108 weeks). Pre-specified subgroup analyses evaluated the following outcomes based on use of UDCA and/or rifampicin: serum bile acid response (i.e., ≥70% reduction from baseline or serum bile acid levels ≤70 μmol/L after 48 weeks), proportion of positive pruritus assessments (PPAs) at the patient level (i.e., scratching score ≤1 or a ≥1-point drop from baseline on the validated PRUCISION instrument) over the 48-week treatment period, and treatment-emergent adverse events (TEAEs).
# [3] = PEDFIC 1, 120 μg/kg/day, n = 19
# [4] = patients not using UDCA and/or rifampicin
# [5] = patients using UDCA and/or rifampicin
smiles,measurement,setting,value
"CCCCC1(CCCC)CN(c2ccccc2)c2cc(SC)c(OCC(=O)N[C@@H](C(=O)N[C@@H](CC)C(=O)O)c3ccc(O)cc3)cc2S(=O)(=O)N1 [Odevixibat, 1,1-dioxo-3,3-dibutyl-5-phenyl-7-methylthio-8-(N-{(R)-α-[N-((S)-1-carboxypropyl)carbamoyl]-4-hydroxybenzyl}carbamoylmethoxy)-2,3,4,5-tetrahydro-1,2,5-benzothiadiazepine]","Any TEAE, patients","[1]; PEDFIC 1, 40 μg/kg/day, n = 23",19 (82.6) n (%)
same,"Drug-related TEAE, patients","[1]; PEDFIC 1, 40 μg/kg/day, n = 23",7 (30.4) n (%)
same,"Drug-related TEAE: ALT increased, patients","[1]; PEDFIC 1, 40 μg/kg/day, n = 23",2 (8.7) n (%)
same,"Drug-related TEAE: AST increased, patients","[1]; PEDFIC 1, 40 μg/kg/day, n = 23",2 (8.7) n (%)
same,"Drug-related TEAE: Blood bilirubin increased, patients","[1]; PEDFIC 1, 40 μg/kg/day, n = 23",2 (8.7) n (%)
same,"Drug-related TEAE: Diarrhea/frequent bowel movements, patients","[1]; PEDFIC 1, 40 μg/kg/day, n = 23",2 (8.7) n (%)
same,"Liver-related TEAEs, patients","[1]; PEDFIC 1, 40 μg/kg/day, n = 23",5 (21.7) n (%)
same,"Mild TEAE, patients","[1]; PEDFIC 1, 40 μg/kg/day, n = 23",11 (47.8) n (%)
same,"Moderate TEAE, patients","[1]; PEDFIC 1, 40 μg/kg/day, n = 23",7 (30.4) n (%)
same,"Serious TEAEs, patients","[1]; PEDFIC 1, 40 μg/kg/day, n = 23",0 n (%)
same,"Severe TEAE, patients","[1]; PEDFIC 1, 40 μg/kg/day, n = 23",1 (4.3) n (%)
same,"TEAEs leading to discontinuation, patients","[1]; PEDFIC 1, 40 μg/kg/day, n = 23",0 n (%)
same,"Any TEAE, patients",[1]; [3],16 (84.2) n (%)
same,"Drug-related TEAE, patients",[1]; [3],7 (36.8) n (%)
same,"Drug-related TEAE: ALT increased, patients",[1]; [3],2 (10.5) n (%)
same,"Drug-related TEAE: AST increased, patients",[1]; [3],1 (5.3) n (%)
same,"Drug-related TEAE: Blood bilirubin increased, patients",[1]; [3],2 (10.5) n (%)
same,"Drug-related TEAE: Diarrhea/frequent bowel movements, patients",[1]; [3],2 (10.5) n (%)
same,"Liver-related TEAEs, patients",[1]; [3],6 (31.6) n (%)
same,"Mild TEAE, patients",[1]; [3],8 (42.1) n (%)
same,"Moderate TEAE, patients",[1]; [3],6 (31.6) n (%)
same,"Serious TEAEs, patients",[1]; [3],3 (15.8) n (%)
same,"Severe TEAE, patients",[1]; [3],2 (10.5) n (%)
same,"TEAEs leading to discontinuation, patients",[1]; [3],1 (5.3) n (%)
same,"deaths, treatment-related serious AEs, TEAEs related to liver decompensation","[1]; PEDFIC 1, 24 weeks","No deaths, treatment-related serious AEs, or TEAEs related to liver decompensation occurred; also recorded: no deaths or treatment-related serious adverse events"
same,tolerability,"[1]; PEDFIC 1, 40 and 120 μg/kg/day over 24 weeks",well tolerated
same,patients with at least one TEAE,"[1]; PEDFIC 1, all doses (35 of 42 patients)",83%
same,"Any TEAE, patients","[1]; PEDFIC 1, all doses, n = 42",35 (83.3) n (%)
same,"Drug-related TEAE, patients","[1]; PEDFIC 1, all doses, n = 42",14 (33.3) n (%)
same,"Drug-related TEAE: ALT increased, patients","[1]; PEDFIC 1, all doses, n = 42",4 (9.5) n (%)
same,"Drug-related TEAE: AST increased, patients","[1]; PEDFIC 1, all doses, n = 42",3 (7.1) n (%)
same,"Drug-related TEAE: Blood bilirubin increased, patients","[1]; PEDFIC 1, all doses, n = 42",4 (9.5) n (%)
same,"Drug-related TEAE: Diarrhea/frequent bowel movements, patients","[1]; PEDFIC 1, all doses, n = 42",4 (9.5) n (%)
same,"Liver-related TEAEs, patients","[1]; PEDFIC 1, all doses, n = 42",11 (26.2) n (%)
same,"Mild TEAE, patients","[1]; PEDFIC 1, all doses, n = 42",19 (45.2) n (%)
same,"Moderate TEAE, patients","[1]; PEDFIC 1, all doses, n = 42",13 (31.0) n (%)
same,"Serious TEAEs, patients","[1]; PEDFIC 1, all doses, n = 42",3 (7.1) n (%)
same,"Severe TEAE, patients","[1]; PEDFIC 1, all doses, n = 42",3 (7.1) n (%)
same,"TEAEs leading to discontinuation, patients","[1]; PEDFIC 1, all doses, n = 42",1 (2.4) n (%)
same,TEAE vomiting,"[1]; PEDFIC 1, all doses, placebo 0%",17%
same,TEAE ALT increase,"[1]; PEDFIC 1, all doses, placebo 5%",14%
same,TEAE serum bilirubin increase,"[1]; PEDFIC 1, all doses, placebo 10%",12%
same,TEAE upper respiratory tract infection,"[1]; PEDFIC 1, all doses, placebo 15%",19%
same,TEAEs considered related to study drug by the investigator,"[1]; PEDFIC 1, all doses, placebo 15.0%",33.3%
same,TEAE fever,"[1]; PEDFIC 1, all doses, placebo 25%",29%
same,treatment-related AEs of diarrhea or frequent bowel movement,"[1]; PEDFIC 1, odevixibat-treated patients",9.5%
same,patients meeting criteria for serum bile acid response,[2]; patients not using UDCA,40%
same,patients meeting criteria for serum bile acid response,[2]; [4],67%
same,patients meeting criteria for serum bile acid response,[2]; patients not using rifampicin,82%
same,patients meeting criteria for serum bile acid response,[2]; patients using UDCA,74%
same,patients meeting criteria for serum bile acid response,[2]; [5],67%
same,patients meeting criteria for serum bile acid response,[2]; patients using rifampicin,54%
same,mean proportion of positive pruritus assessments (PPAs),[2]; patients not using UDCA,72%
same,mean proportion of positive pruritus assessments (PPAs),[2]; [4],69%
same,mean proportion of positive pruritus assessments (PPAs),[2]; patients not using rifampicin,81%
same,mean proportion of positive pruritus assessments (PPAs),[2]; patients using UDCA,65%
same,mean proportion of positive pruritus assessments (PPAs),[2]; [5],66%
same,mean proportion of positive pruritus assessments (PPAs),[2]; patients using rifampicin,56%
same,incidence of TEAEs,[2]; patients not using UDCA,87%
same,incidence of TEAEs,[2]; [4],90%
same,incidence of TEAEs,[2]; patients not using rifampicin,86%
same,incidence of TEAEs,[2]; patients using UDCA,77%
same,incidence of TEAEs,[2]; [5],78%
same,incidence of TEAEs,[2]; patients using rifampicin,75%
